Laboratory results reported in patent US6677488B2, “Substituted biphenyl compounds for the treatment of inflammation” (G.D. Searle & Co., priority 1995, dated 2004).

| Compound | melting point |
| --- | --- |
| CS(=O)(=O)c1ccc(-c2ccccc2-c2ccc(F)c(Cl)c2)cc1 [Example 10, 2-Chloro-1-fluoro-4-[2-[4-(methylsulfonyl)phenyl]phenyl]benzene] | 179.5 to 181.1 °C |
| CS(=O)(=O)c1ccc(-c2cc(Cl)c(Cl)cc2-c2ccc(F)cc2)cc1 [Example 44, 1,2-Dichloro-4-(4-fluorophenyl)-5-[4-(methylsulfonyl)phenyl]benzene] | 143.5 to 144.5 °C |
| CS(=O)(=O)c1ccc(-c2cc(F)c(F)cc2-c2ccc3c(c2)OCCO3)cc1 [Example 41] | 82 to 83 °C |
| COc1ccc(-c2ccccc2-c2ccc(S(N)(=O)=O)cc2)cc1F [Example 6, 4-[2-(3-Fluoro-4-methoxyphenyl)phenyl]benzenesulfonamide] | 143.5 to 145.5 °C (dec.) |
| CS(=O)(=O)c1ccc(-c2cc3c(cc2-c2ccc(F)cc2)OCO3)cc1 [Example 17, 5-(4-Fluorophenyl)-6-[4-(methylsulfonyl)phenyl]-1,3-benzodioxole] | 173 to 174 °C |
| COc1ccc(-c2ccccc2-c2ccc(S(C)(=O)=O)cc2)cc1F [Example 4, 2-Fluoro-1-methoxy-4-[2-[4-(methylsulfonyl)phenyl]phenyl]benzene] | 136.2 to 136.6 °C |
| NS(=O)(=O)c1ccc(-c2ccccc2-c2ccc(Cl)cc2)cc1 [Example 3, 4-[2-(4-Chlorophenyl)phenyl]benzenesulfonamide] | 206.2 to 207 °C |
| CS(=O)(=O)c1ccc(-c2cc(F)c(F)cc2-c2ccc3c(c2)OCO3)cc1 [Example 24, 5-[4,5-Difluoro-2-[4-(methylsulfonyl)phenyl]phenyl]-1,3-benzodioxole] | 110 to 111 °C |
| Cc1ccc(-c2cc(F)c(F)cc2-c2ccc(S(C)(=O)=O)cc2)cc1 [Example 23, 1,2-Difluoro-4-(4-methylphenyl)-5-[4-(methylsulfonyl)phenyl]benzene] | 147 to 148 °C |
| CS(=O)(=O)c1ccc(-c2ccccc2-c2ccc(Cl)cc2)cc1 [Example 8, 1-(4-Chlorophenyl)-2-[4-(methylsulfonyl)phenyl]benzene] | 180.2 to 180.6 °C |
| COc1ccc(-c2cc(F)c(F)cc2-c2ccc(S(C)(=O)=O)cc2)cc1OC [Example 40, 1,2-Difluoro-4-(3,4-dimethoxypheny)-5-[4-(methylsulfonyl)phenyl]benzene] | 140 to 141 °C |
| CS(=O)(=O)c1ccc(-c2cc(F)c(F)cc2-c2ccc(F)cc2)cc1 [Example 11, 1,2-Difluoro-4-(4-fluorophenyl)-5-[4-(methylsulfonyl)phenyl]benzene] | 172.8 to 173.5 °C |
| NS(=O)(=O)c1ccc(-c2cc3c(cc2-c2ccc(F)cc2)OCO3)cc1 [Example 22, 4-[6-(4-Fluorophenyl)-1,3-benzodioxol-5-yl]benzenesulfonamide] | 191 to 192.5 °C |
| CS(=O)(=O)c1ccc(-c2ccccc2-c2ccc(F)cc2)cc1 [Example 1, 1-(4-Fluorophenyl)-2-[4-(methylsulfonyl)phenyl]benzene] | 178 to 179 °C |
| NS(=O)(=O)c1ccc(-c2c(F)c(F)c(F)c(F)c2-c2ccc(F)cc2)cc1 [Example 15, 4-[2,3,4,5-Tetrafluoro-6-(4-fluorophenyl)phenyl]benzenesulfonamide] | 202 to 203 °C |
| COc1ccc(-c2ccccc2-c2ccc(S(N)(=O)=O)cc2)cc1Cl [Example 7, 4-[2-(3-Chloro-4-methoxyphenyl)phenyl]benzenesulfonamide] | 179.5 to 180.2 °C |
| NS(=O)(=O)c1ccc(-c2ccccc2-c2ccc(F)cc2)cc1 [Example 2, 4-[2-(4-Fluorophenyl)phenyl]benzenesulfonamide] | 187.3 to 188.2 °C |
| COc1ccc(-c2ccccc2-c2ccc(S(C)(=O)=O)cc2)cc1Cl [Example 5, 2-Chloro-1-methoxy-4-[2-[4-(methylsulfonyl)phenyl]phenyl]benzene] | 161.5 to 162.3 °C |
| NS(=O)(=O)c1ccc(-c2ccccc2-c2ccc(C(F)(F)F)cc2)cc1 [Example 9, 4-[2-[4-(Trifluoromethyl)phenyl]phenyl]benzenesulfonamide] | 187.5 to 187.8 °C |

Other lines, results leading:

| melting point | Compound |
| --- | --- |
| 142 to 143 °C | NS(=O)(=O)c1ccc(-c2cc(F)c(F)cc2-c2ccc3c(c2)OCO3)cc1 [Example 26, 4-[2-(1,3-Benzodioxol-5-yl)-4,5-difluorophenyl]benzenesulfonamide] |
| 151.5 to 152.2 °C | Cc1cc(-c2cc(F)c(F)cc2-c2ccc(S(C)(=O)=O)cc2)ccc1Cl [Example 32, 4-(4-Chloro-3-methylphenyl)-1,2-difluoro-5-[4-(methylsulfonyl)phenyl]benzene] |
| 141.5 to 142.8 °C | Cc1cc(-c2cc(F)c(F)cc2-c2ccc(S(N)(=O)=O)cc2)ccc1Cl [Example 36, 4-[2-(4-Chloro-3-methylphenyl)-4,5-difluorophenyl]benzenesulfonamide] |
| 172.2 to 172.5 °C | CS(=O)(=O)c1ccc(-c2cc(F)c(F)cc2-c2ccc(F)c(Cl)c2)cc1 [Example 14, 1-(3-Chloro-4-fluorophenyl)-4,5-difluoro-2-[4-(methylsulfonyl)phenyl]benzene] |
| > 96 °C (dec.) | Cc1ccc(-c2cc(F)c(F)cc2-c2ccc(S(N)(=O)=O)cc2)cn1 [Example 48, 4-[4,5-Difluoro-2-(6-methylpyridin-3-yl)phenyl]benzenesulfonamide] |
| 167.2 to 167.5 °C | Cc1cc(-c2cc(F)c(F)cc2-c2ccc(S(C)(=O)=O)cc2)ccc1F [Example 31, 1,2-Difluoro-4-(4-fluoro-3-methylphenyl)-5-[4-(methylsulfonyl)phenyl]benzene] |
| 120 to 121.8 °C | COc1ccc(-c2cc(F)c(F)cc2-c2ccc(S(N)(=O)=O)cc2)cc1C [Example 39, 4-[4,5-Difluoro-2-(4-methoxy-3-methylphenyl)phenyl]benzenesulfonamide] |
| 129 to 130 °C | CN(C)c1ccc(-c2cc(F)c(F)cc2-c2ccc(S(C)(=O)=O)cc2)cc1Cl [Example 28, 2-Chloro-4-[4,5-difluoro-2-[4-(methylsulfonyl)phenyl]phenyl]-N,N-dimethylbenzenamine] |
| 160.5 to 161.5 °C | COc1ccc(-c2cc(F)c(F)cc2-c2ccc(S(C)(=O)=O)cc2)cc1C [Example 35, 1,2-Difluoro-4-(4-methoxy-3-methylpheny)-5-[4-(methylsulfonyl)phenyl]benzene] |
| 157 to 158 °C | COc1ccc(-c2cc(F)c(F)cc2-c2ccc(S(N)(=O)=O)cc2)cc1OC [Example 42, 4-[4,5-Difluoro-2-(3,4-dimethoxyphenyl)phenyl]benzenesulfonamide] |
| 162.5 to 162.8 °C | NS(=O)(=O)c1ccc(-c2cc(F)c(F)cc2-c2ccc(F)c(Cl)c2)cc1 [Example 16, 4-[2-(3-Chloro-4-fluorophenyl)-4,5-difluorophenyl]benzenesulfonamide] |
| 193 to 194 °C | CN(C)c1ccc(-c2cc(F)c(F)cc2-c2ccc(S(N)(=O)=O)cc2)cc1Cl [Example 30, 4-[2-[3-Chloro-4-(N,N-dimethylamino)phenyl]-4,5-difluorophenyl]benzenesulfonamide] |
| 141 to 142.5 °C | Cc1ccc(-c2cc(F)c(F)cc2-c2ccc(S(C)(=O)=O)cc2)cn1 [Example 47, 5-[4,5-Difluoro-4′-(methylsulfonyl)-(1,1′-biphenyl)-2-yl]-2-methylpyridine] |
| 125.1 to 125.8 °C | Cc1ccc(-c2cc(F)c(F)cc2-c2ccc(S(C)(=O)=O)cc2)cc1C [Example 33, 1,2-Difluoro-4-(3,4-dimethylphenyl)-5-[4-(methylsulfonyl)phenyl]benzene] |
| 151.5 to 152 °C | Cc1cc(-c2cc(F)c(F)cc2-c2ccc(S(N)(=O)=O)cc2)ccc1F [Example 34, 4-[4,5-Difluoro-2-(4-fluoro-3-methylphenyl)phenyl)benzenesulfonamide] |
| 138 to 139 °C | Cc1ccc(-c2cc(F)c(F)cc2-c2ccc(S(C)(=O)=O)cc2)cc1Cl [Example 27, 1-(3-Chloro-4-methylphenyl)-4,5-difluoro-2-[4-(methylsulfonyl)phenyl]benzene] |
| 190.2 to 191.5 °C | NS(=O)(=O)c1ccc(-c2cc(F)c(F)cc2-c2ccc(F)cc2)cc1 [Example 13, 4-[3,4-Difluoro-6-(4-fluorophenyl)phenyl]benzenesulfonamide] |
| 103 to 104 °C | Cc1ccc(-c2cc(F)c(F)cc2-c2ccc(S(N)(=O)=O)cc2)cc1 [Example 25, 4-[4,5-Difluoro-2-(4-methylphenyl)phenyl]benzenesulfonamide] |
| 145.5 to 146 °C | COc1c(Cl)cc(-c2cc(F)c(F)cc2-c2ccc(S(N)(=O)=O)cc2)cc1Cl [Example 38, 4-[2-(3,5-Dichloro-4-methoxyphenyl)-4,5-difluorophenyl]benzenesulfonamide] |
| 132.8 to 133.9 °C | Cc1ccc(-c2cc(F)c(F)cc2-c2ccc(S(N)(=O)=O)cc2)cc1C [Example 37, 4-[4,5-Difluoro-2-(3,4-dimethylphenyl)phenyl]benzenesulfonamide] |
| 147.5 to 148.5 °C | COc1ccc(-c2cc(F)c(F)cc2-c2ccc(S(C)(=O)=O)cc2)cc1Cl [Example 18, 1-(3-Chloro-4-methoxyphenyl)-4,5-difluoro-2-[4-(methylsulfonyl)phenyl]benzene] |
| 139 to 140 °C | Cc1ccc(-c2cc(F)c(F)cc2-c2ccc(S(N)(=O)=O)cc2)cc1Cl [Example 29, 4-[2-(3-Chloro-4-methylphenyl)-4,5-difluorophenyl]benzenesulfonamide] |
| 159.2 to 159.7 °C | COc1ccc(-c2cc(F)c(F)cc2-c2ccc(S(C)(=O)=O)cc2)cc1F [Example 19, 1,2-Difluoro-4-(3-fluoro-4-methoxyphenyl)-5-[4-(methylsulfonyl)phenyl]benzene] |
| 107 to 108 °C | NS(=O)(=O)c1ccc(-c2cc(F)c(F)cc2-c2ccc3c(c2)OCCO3)cc1 [Example 43, 4-[2-(2,3-Dihydro-1,4-benzodioxin-6-yl)-4,5-difluorophenyl]benzenesulfonamide] |
| 70 °C (dec.) | COc1ccc(-c2cc(F)c(F)cc2-c2ccc(S(N)(=O)=O)cc2)cc1Cl [Example 20, 4-[2-(3-Chloro-4-methoxyphenyl)-4,5-difluorophenyl]benzenesulfonamide] |
